Reference: PMC8942558 (Emerging Microbes & Infections, 2022)
Like-named read-outs stand apart in the source and are kept apart here.

Columns and labels:
YFV replicon = format: cell-based, Yellow fever virus
[1] = tested on: clathrin-mediated endocytosis; format: cell-based, Human
YFV-17D^DiD = format: cell-based, Yellow fever virus
WNV NS5 = WNV NS5 (West Nile virus, UniProt Q9Q6P4); assay: biochemical; format: binding
YFV-17D [2] = format: cell-based, Yellow fever virus
YFV NS5 = YFV NS5 (Yellow fever virus, UniProt P03314); assay: biochemical; format: binding
YFV NS5, sequence (P03314 2507-3411 limits assumed): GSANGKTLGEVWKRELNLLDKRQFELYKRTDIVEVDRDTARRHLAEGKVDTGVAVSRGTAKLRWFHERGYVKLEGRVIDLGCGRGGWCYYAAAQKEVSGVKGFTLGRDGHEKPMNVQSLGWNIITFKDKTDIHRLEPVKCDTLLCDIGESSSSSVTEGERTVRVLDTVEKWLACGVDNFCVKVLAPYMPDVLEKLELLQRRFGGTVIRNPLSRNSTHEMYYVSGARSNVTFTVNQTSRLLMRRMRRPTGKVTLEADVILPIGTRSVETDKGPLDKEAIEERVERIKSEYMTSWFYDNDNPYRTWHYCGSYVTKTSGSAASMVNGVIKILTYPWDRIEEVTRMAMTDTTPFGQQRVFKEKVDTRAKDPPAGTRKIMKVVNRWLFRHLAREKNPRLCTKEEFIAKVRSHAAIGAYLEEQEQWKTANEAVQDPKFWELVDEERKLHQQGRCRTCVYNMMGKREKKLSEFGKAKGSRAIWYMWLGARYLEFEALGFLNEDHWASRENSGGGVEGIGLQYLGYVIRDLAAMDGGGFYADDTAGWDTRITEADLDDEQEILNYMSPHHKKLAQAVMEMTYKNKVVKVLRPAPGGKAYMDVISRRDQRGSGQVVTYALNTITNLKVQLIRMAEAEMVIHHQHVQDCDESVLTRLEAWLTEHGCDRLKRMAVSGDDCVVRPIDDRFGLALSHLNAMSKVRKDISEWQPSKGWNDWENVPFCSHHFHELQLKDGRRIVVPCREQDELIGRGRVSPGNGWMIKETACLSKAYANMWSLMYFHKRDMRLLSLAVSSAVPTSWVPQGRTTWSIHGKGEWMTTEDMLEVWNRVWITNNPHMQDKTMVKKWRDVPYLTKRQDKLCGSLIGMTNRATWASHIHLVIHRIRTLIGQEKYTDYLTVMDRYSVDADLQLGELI

[3] = tested on: WT-YFV strain FJYF03/2016; set-up: species or system A129^−/− mice; settings: mouse, in vivo
dengue virus (DENV) = format: cell-based
West Nile virus (WNV) = format: cell-based
hepatitis C virus (HCV) = format: cell-based
YFV = format: cell-based, Yellow fever virus
YFV-17D [4] = format: cell-based, Yellow fever virus; remark: listed apart in the source
WNV = format: cell-based, West Nile virus
[5] = tested on: WT-YFV strain FJYF03/2016; set-up: species or system C57 mice; settings: mouse, in vivo
YFV-17D [6] = format: cell-based, Yellow fever virus; remark: listed apart in the source
YFV-17D [7] = format: cell-based, Yellow fever virus; remark: listed apart in the source
[8] = tested on: Japanese encephalitis virus (JEV); format: cell-based
Zika virus (ZIKV) = format: cell-based

WNV NS5, sequence (Q9Q6P4 2529-3433 limits assumed): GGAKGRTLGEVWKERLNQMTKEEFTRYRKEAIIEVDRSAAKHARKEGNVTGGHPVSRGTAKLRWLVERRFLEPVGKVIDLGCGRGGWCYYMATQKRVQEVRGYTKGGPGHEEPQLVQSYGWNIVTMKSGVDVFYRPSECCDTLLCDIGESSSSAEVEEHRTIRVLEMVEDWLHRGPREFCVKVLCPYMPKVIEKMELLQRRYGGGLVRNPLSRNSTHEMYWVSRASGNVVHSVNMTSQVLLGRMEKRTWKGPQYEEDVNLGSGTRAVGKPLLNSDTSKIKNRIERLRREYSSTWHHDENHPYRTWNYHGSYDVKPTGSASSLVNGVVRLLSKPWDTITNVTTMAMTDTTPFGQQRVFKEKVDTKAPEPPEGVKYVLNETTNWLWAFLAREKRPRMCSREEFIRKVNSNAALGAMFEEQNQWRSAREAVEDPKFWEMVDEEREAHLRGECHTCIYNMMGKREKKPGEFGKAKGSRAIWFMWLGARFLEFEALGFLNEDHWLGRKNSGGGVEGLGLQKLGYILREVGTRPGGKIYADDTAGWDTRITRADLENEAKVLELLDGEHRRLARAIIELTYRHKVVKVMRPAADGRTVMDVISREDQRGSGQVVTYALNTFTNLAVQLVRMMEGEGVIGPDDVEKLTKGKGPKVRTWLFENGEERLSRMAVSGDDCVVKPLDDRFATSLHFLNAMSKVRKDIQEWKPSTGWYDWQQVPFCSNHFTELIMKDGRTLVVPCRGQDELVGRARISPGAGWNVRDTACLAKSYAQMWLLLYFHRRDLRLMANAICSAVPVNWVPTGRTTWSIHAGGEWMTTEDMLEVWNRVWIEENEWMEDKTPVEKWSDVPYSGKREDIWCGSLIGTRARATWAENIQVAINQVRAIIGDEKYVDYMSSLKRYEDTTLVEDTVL

CO[C@H]1/C=C/O[C@@]2(C)Oc3c(C)c(O)c4c(O)c(c(/C=N/N5CCN(C6CCCC6)CC5)c(O)c4c3C2=O)NC(=O)/C(C)=C\C=C\[C@H](C)[C@H](O)[C@@H](C)[C@@H](O)[C@@H](C)[C@H](OC(C)=O)[C@@H]1C [Rifapentine]
YFV replication in replicon cells (YFV replicon): robustly abolished YFV replication from 1 to 25 μM
TF uptake [1]: No major changes
virion-host cell fusion (DiD fluorescence signal) (YFV-17D^DiD): no inhibitory effect
Kd (WNV NS5): 54.6 µM
infectivity of virions incubated with compound (YFV-17D [2]): no obvious differences in infectivity
Kd (YFV NS5): 20.8 µM
body weight of survival mice [3]: recovered to almost the normal level
clinical signs [3]: slowed down or reduced the occurrence of clinical signs
survival rate [3]: significantly enhanced the survival rate
virus titres in kidney [3]: did not recognize distinctive changes
virus titres in liver [3]: did not recognize distinctive changes
virus titres in serum [3]: reduced virus titres significantly
virus titres in spleen [3]: reduced virus titres significantly
inhibitory effect on DENV infection (dengue virus (DENV)): no obvious inhibitory effect
inhibitory effect on WNV infection (West Nile virus (WNV)): slight suppressive activity above 5 μM
inhibitory effect on HCV infection (hepatitis C virus (HCV)): no obvious inhibitory effect
YFV assembly and release (YFV): did not influence YFV assembly and release
YFV attachment to the cell surface (YFV-17D [4]): impeded YFV attachment to the cell surface in a dose-dependent manner
WNV binding (WNV): did not affect WNV binding
body weight of surviving mice [5]: all recovered to normal levels
clinical symptoms [5]: fewer injury features
survival of mice [5]: significantly improved the survival of mice
survival rate [5]: approximately 40%
intracellular YFV RNA level (YFV-17D [6]): suppressed in a dose-dependent manner
effect on YFV infection in kinetic test (YFV-17D [7]): obstructive effect on YFV infection throughout the entire phase of viral entry and post-entry stages
inhibitory effect on JEV infection [8]: no obvious inhibitory effect
inhibitory effect on ZIKV infection (Zika virus (ZIKV)): no obvious inhibitory effect

Cl.N [NH4Cl]
virion-host cell fusion (DiD fluorescence signal) (YFV-17D^DiD): fluorescence signal reduced significantly

CC(C)OC(=O)[C@H](C)N[P@](=O)(OC[C@H]1O[C@@H](n2ccc(=O)[nH]c2=O)[C@](C)(F)[C@@H]1O)Oc1ccccc1 [Sofosbuvir]
YFV replication in replicon cells (YFV replicon): relatively good inhibitory effect
Kd (YFV NS5): 6140 µM
survival rate [3]: slight protective activity in the highest infection-dose group

CO/C1=C\C(C)=C\[C@@H](C)[C@@H](O)[C@@H](C)C/C(C)=C/C=C/[C@H](OC)[C@@H]([C@@H](C)[C@@H](O)[C@H](C)[C@@]2(O)C[C@@H](O)[C@H](C)[C@@H](C(C)C)O2)OC1=O [bafilomycin A1]
virion-host cell fusion (DiD fluorescence signal) (YFV-17D^DiD): fluorescence signal reduced significantly
